ChEMBL document CHEMBL1149039, “A new scalarane sesterterpenoid from the marine sponge Cacospongia mollior” (J Nat Prod, 1994)
≈ marks a conversion by molar mass, not a printed value.

Assay: Toxicity in Artemia salina
Assay type: organism-based
Conditions: in vivo, read-out: LD50 (the source's name)

Row | SMILES | LC50 [µg/mL]
1 | CC1(C)CCC[C@]2(C)[C@H]3CC[C@@]4(C)[C@@H](CC=C(C=O)[C@@H]4C=O)[C@]3(C)CC[C@@H]12 [12-DEACETOXYSCALARADIAL] | 0.77 (≈ 2.08 µM)
2 | CC(=O)O[C@H]1C[C@@H]2[C@@]3(C)CCCC(C)(C)[C@@H]3CC[C@@]2(C)[C@@H]2CC=C(C=O)[C@H](C=O)[C@@]12C [SCALARADIAL] | 0.18 (≈ 0.42 µM)
